Among the test systems are HT29 colon; DU-145 prostate; SK-MEL-5 melanoma; SK-OV-3 ovarian; OVCAR-5 ovarian; PC-3 prostate; NCI-H522 lung; UO-31 renal; MOLT-4 leukemia; ACHN renal.
Common to all, as to experiment: NCI tumour cell line growth inhibition, 48 h

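Interpolation was linear, between the two tested concentrations surrounding the appropriate level; five concentrations were tested over 48 hours in 96-well plates. GI50 = concentration required for 50% inhibition of growth. TGI marks complete inhibition of growth.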 A value given as a limit tells only on which side of the number the result lay.

With `CC[C@@]1(O)C(=O)OCc2c1cc1n(c2=O)Cc2cc3c(NC(=O)CN)cccc3nc2-1`, the TGI was over 100 µM in the assay with HT29 colon; 1.98 µM with DU-145 prostate; 2.32 µM in the assay on SK-MEL-5 melanoma; 25.3 µM with SK-OV-3 ovarian; 63.8 µM in the assay on OVCAR-5 ovarian; over 100 µM with PC-3 prostate. Further, the TGI was 56.3 µM in the assay with NCI-H522 lung, 3.55 µM with UO-31 renal, 0.161 µM in the assay on MOLT-4 leukemia and 1.02 µM in the assay with ACHN renal.

For `COc1ccc2c(c1)[C@@]1(C)CCC3c4ccc(O)cc4CCC3C1C2` (stereo partly drawn), the GI50 in the assay with HT29 colon was 3.96 µM; with DU-145 prostate, 17.6 µM; in the assay with SK-MEL-5 melanoma it was 17 µM; with SK-OV-3 ovarian it was 15.7 µM; in the assay on OVCAR-5 ovarian, 19 µM; in the assay with PC-3 prostate, 20.1 µM. Moreover, the GI50 is 16.4 µM with NCI-H522 lung, 12.8 µM in the assay on UO-31 renal, 17.8 µM with MOLT-4 leukemia and 15.9 µM with ACHN renal. The TGI in the assay on HT29 colon came to 17.5 µM; in the assay on DU-145 prostate it was 39.7 µM; with SK-MEL-5 melanoma, 33.1 µM; in the assay on SK-OV-3 ovarian, 29.6 µM; with OVCAR-5 ovarian, 33.1 µM; with PC-3 prostate, 42 µM. For the same compound, the TGI in the assay on NCI-H522 lung was 37.6 µM; with UO-31 renal it was 30.9 µM; in the assay on MOLT-4 leukemia, 64.2 µM; in the assay with ACHN renal, 29.8 µM.

Regarding `O=[N+]([O-])c1cccc(-c2cc(-c3cc(Br)ccc3O)[nH]n2)c1`, the GI50 in the assay on HT29 colon was 3.55 µM; in the assay with DU-145 prostate it was 3.44 µM; with SK-MEL-5 melanoma, 1.61 µM; in the assay on SK-OV-3 ovarian, 2.37 µM; in the assay on OVCAR-5 ovarian it was 3.81 µM; in the assay on PC-3 prostate, 3.48 µM. Also, the GI50 with NCI-H522 lung was 1.49 µM; in the assay with UO-31 renal, 2.34 µM; in the assay on MOLT-4 leukemia, 1.72 µM; in the assay with ACHN renal, 3.23 µM. Further, the TGI came out at 12 µM in the assay on HT29 colon; 12.3 µM with DU-145 prostate; 3.35 µM in the assay with SK-MEL-5 melanoma; 7.15 µM in the assay with SK-OV-3 ovarian; 14.9 µM in the assay with OVCAR-5 ovarian; 7.7 µM with PC-3 prostate. Also, the TGI is 3.66 µM in the assay with NCI-H522 lung, 9.38 µM in the assay on UO-31 renal and 4.68 µM in the assay on MOLT-4 leukemia.

Take `COc1ccc(/C=C\c2cc(OC)c(OC)c(OC)c2)cc1OCC(=O)Nc1nc2ccc(OC(F)(F)F)cc2s1`: the GI50 with HT29 colon was over 100 µM; in the assay with DU-145 prostate, 4.11 µM; with SK-MEL-5 melanoma, 3.26 µM; in the assay with SK-OV-3 ovarian, 8.42 µM; in the assay with OVCAR-5 ovarian it was 31.2 µM; in the assay with PC-3 prostate, 5.12 µM. Besides, the GI50 in the assay on NCI-H522 lung was 3.16 µM; in the assay on UO-31 renal, 4.37 µM; in the assay with MOLT-4 leukemia it was 4.21 µM; in the assay on ACHN renal, 8.31 µM. Moreover, the TGI in the assay on HT29 colon was over 100 µM; in the assay on DU-145 prostate it was over 100 µM; with SK-MEL-5 melanoma it was 22.9 µM; with SK-OV-3 ovarian it was over 100 µM; in the assay with OVCAR-5 ovarian, over 100 µM; in the assay with PC-3 prostate, over 100 µM. In addition, the TGI was 21.7 µM with NCI-H522 lung, over 100 µM with UO-31 renal, over 100 µM in the assay with MOLT-4 leukemia and over 100 µM in the assay with ACHN renal.

In the case of `CCCCCCN1CCN(Cc2ccc(N(CC)CC)cc2)C(=O)C1=O`, the GI50 in the assay on HT29 colon was 3.34 µM; with DU-145 prostate, 3.38 µM; in the assay with SK-MEL-5 melanoma, 0.412 µM; in the assay on SK-OV-3 ovarian it was 3.61 µM; with OVCAR-5 ovarian, 5.41 µM; in the assay on PC-3 prostate it was 2.97 µM. Besides, the GI50 in the assay with NCI-H522 lung is 2.03 µM; with UO-31 renal it was 5.22 µM; in the assay with MOLT-4 leukemia, 3.42 µM; in the assay on ACHN renal, 6.45 µM. The TGI was over 100 µM in the assay with HT29 colon; 48.7 µM in the assay with DU-145 prostate; 11.3 µM in the assay with SK-MEL-5 melanoma; over 100 µM in the assay with SK-OV-3 ovarian; over 100 µM with OVCAR-5 ovarian; 54 µM with PC-3 prostate. The TGI was 5.14 µM in the assay with NCI-H522 lung, over 100 µM with UO-31 renal, 32.8 µM in the assay on MOLT-4 leukemia and over 100 µM in the assay on ACHN renal.

As to `COc1cc2c3c(n(C)c(=O)c2cc1OC)-c1cc2c(cc1/C3=C/[C@H](N)CCCCN)OCO2`, the GI50 in the assay on HT29 colon was 1.65 µM; with DU-145 prostate, 1.07 µM; in the assay on SK-MEL-5 melanoma, 1.49 µM; in the assay with SK-OV-3 ovarian, 1.4 µM; in the assay with OVCAR-5 ovarian it was 0.885 µM; in the assay with PC-3 prostate it was 2 µM. Moreover, the GI50 is 0.665 µM in the assay on NCI-H522 lung, 3.14 µM in the assay on UO-31 renal and 0.637 µM in the assay on ACHN renal. Further, the TGI is over 100 µM in the assay on HT29 colon; 50 µM in the assay on DU-145 prostate; 7.64 µM with SK-MEL-5 melanoma; over 24.7 µM in the assay with SK-OV-3 ovarian; 5.65 µM in the assay with OVCAR-5 ovarian; 27.5 µM in the assay on PC-3 prostate. For the same compound, the TGI with NCI-H522 lung was 5.85 µM; with UO-31 renal it was 23 µM; with MOLT-4 leukemia, over 100 µM; in the assay with ACHN renal it was 3.16 µM.

Consider `Cc1cc(C)c2c(N)c3cccc(C)c3nc2n1`, for which the GI50 was 0.994 µM in the assay with HT29 colon; 2.33 µM in the assay with DU-145 prostate; 1.44 µM in the assay on SK-MEL-5 melanoma; 2.11 µM with SK-OV-3 ovarian; 2.1 µM with OVCAR-5 ovarian; 2.44 µM in the assay with PC-3 prostate. In addition, the GI50 was 2.61 µM in the assay with NCI-H522 lung, 1.9 µM with UO-31 renal, 2.17 µM with MOLT-4 leukemia and 0.852 µM in the assay on ACHN renal. Moreover, the TGI in the assay on HT29 colon is 5.27 µM; in the assay with DU-145 prostate, 6.5 µM; with SK-MEL-5 melanoma it was 2.74 µM; in the assay on SK-OV-3 ovarian, 9.36 µM; in the assay with OVCAR-5 ovarian it was 5.71 µM; in the assay with PC-3 prostate, 7.61 µM. Besides, the TGI in the assay with NCI-H522 lung worked out at 9.7 µM; in the assay on UO-31 renal, 59.6 µM; with MOLT-4 leukemia, 10 µM; with ACHN renal, 5.08 µM.

As to `NC1=C(Cl)C(=O)c2ccccc2C1=O`, the TGI worked out at 30.4 µM with HT29 colon; 3.84 µM in the assay on DU-145 prostate; 2.09 µM with SK-MEL-5 melanoma; 33.1 µM with SK-OV-3 ovarian; 23.7 µM in the assay with OVCAR-5 ovarian; 6 µM in the assay with PC-3 prostate. Further, the TGI was found to be 18.5 µM in the assay with NCI-H522 lung, 29.9 µM in the assay with UO-31 renal, 22.4 µM in the assay with MOLT-4 leukemia and 22.7 µM in the assay on ACHN renal.

These data come from PubChem BioAssay (NCI).
